From ChEMBL document CHEMBL1148656, “Synthesis, SAR exploration, and X-ray crystal structures of factor XIa inhibitors containing an alpha-ketothiazole arginine” (Bioorg Med Chem Lett, 2006)

What follows are molecules tested against Coagulation factor XI (Homo sapiens, UniProt P03951).
Chain of Coagulation factor XI (P03951 19-387 limits assumed): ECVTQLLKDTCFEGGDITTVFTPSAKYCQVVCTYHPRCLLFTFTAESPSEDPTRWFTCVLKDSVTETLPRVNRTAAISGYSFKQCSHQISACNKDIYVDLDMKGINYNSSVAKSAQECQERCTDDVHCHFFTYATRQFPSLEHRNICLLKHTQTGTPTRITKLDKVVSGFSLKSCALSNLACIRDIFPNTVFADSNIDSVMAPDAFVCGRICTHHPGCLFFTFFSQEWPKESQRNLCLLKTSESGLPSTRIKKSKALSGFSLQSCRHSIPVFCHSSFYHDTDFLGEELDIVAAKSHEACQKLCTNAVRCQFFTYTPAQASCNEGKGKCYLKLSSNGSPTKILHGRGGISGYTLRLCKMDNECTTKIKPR
Chain of Coagulation factor XI (P03951 388-625 limits assumed): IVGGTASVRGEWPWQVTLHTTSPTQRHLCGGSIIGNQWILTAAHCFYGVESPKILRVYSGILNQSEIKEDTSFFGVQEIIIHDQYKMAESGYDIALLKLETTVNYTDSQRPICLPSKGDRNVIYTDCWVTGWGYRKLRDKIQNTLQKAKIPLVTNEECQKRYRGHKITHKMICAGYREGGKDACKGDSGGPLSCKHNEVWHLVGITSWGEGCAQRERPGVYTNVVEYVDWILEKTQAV
In the case of N=C(N)NCCC[C@H](NS(=O)(=O)c1ccc2ccccc2c1)C(=O)c1nccs1, the IC50 is reported as 86 µM.
Work on CC(C)[C@H](CC(=O)NCc1ccc(Cl)c(Cl)c1)C(=O)N[C@@H](CCCN=C(N)N)C(=O)c1nccs1 yielded an IC50 of 6.22 µM.
Work on NC(N)=NCCC[C@H](NC(=O)Cc1ccc(Cl)c(Cl)c1)C(=O)c1nccs1 yielded an IC50 of 37.9 µM.
In the case of CC(C)[C@H](NC(=O)N[C@@H]1C[C@@H]2C[C@H]([C@H]1C)C2(C)C)C(=O)N[C@@H](CCCN=C(N)N)C(=O)c1nccs1, the IC50 is reported as 0.713 µM.
For CC(C)[C@H](NC(=O)N[C@H]1C[C@H]2C[C@@H]([C@@H]1C)C2(C)C)C(=O)N[C@@H](CCCN=C(N)N)C(=O)c1nccs1, the IC50 was 3.31 µM.
For N=C(N)NCCC[C@H](NS(=O)(=O)c1cccc2ccccc12)C(=O)c1nccs1, the IC50 was 250 µM.
Molecule N=C(N)NCCC[C@H](NC(=O)c1cc(F)cc2c1OCOC2)C(=O)c1nccs1 has an IC50 of 5.9 µM.
CC(C)[C@H](NC(=O)[C@H](O)c1cccc(F)c1)C(=O)N[C@@H](CCCN=C(N)N)C(=O)c1nccs1 gave an IC50 of 0.956 µM.
Molecule NC(N)=NCCC[C@H](NC(=O)c1cccc2ccccc12)C(=O)c1nccs1 has an IC50 of 2.25 µM.
Molecule CC(C)[C@H](NC(=O)NCc1ccc(Cl)c(Cl)c1)C(=O)N[C@@H](CCCN=C(N)N)C(=O)c1nccs1 has an IC50 of 0.48 µM.
NC(N)=NCCC[C@H](NC(=O)Cc1cccc2ccccc12)C(=O)c1nccs1 was tested, and the IC50 was greater than 250 µM.
CC(C)CC(=O)N[C@@H](CCCN=C(N)N)C(=O)c1nccs1 gave an IC50 of 123 µM.
Molecule N=C(N)NCCC[C@H](NC(=O)c1ccc2ccccc2c1)C(=O)c1nccs1 has an IC50 greater than 200 µM.
CC(C)[C@H](NC(=O)[C@H](O)c1cccc(Cl)c1)C(=O)N[C@@H](CCCN=C(N)N)C(=O)c1nccs1 was tested, and the IC50 was 0.116 µM.
